Here are results for nine molecules from patent US7241613B1, “Identification of Candida cell surface proteins and their uses” (priority 2002, dated 2007).

Converted amounts (≈) assume the structure as drawn. Where two headings read alike, the source gives them in different places. Starred links: 1 amine or outer side, 2 acyl side, 3 side chain; linkers in the order of their positions; H or OH if unused. Positions of bridges follow the written chain, without caps; N, C: chain ends. Non-standard residues stand in square brackets, D forms with d. Residues, ends and D or L forms follow the SMILES beside them. *: point of attachment. hTyr(3S-OH,4S-OH,3'-OSO3H) = N[C@H](C(=O)O)[C@H](O)[C@@H](O)c1ccc(O)c(OS(=O)(=O)O)c1; Orn(4R-OH,5R-OH) = O=C([C@H](C[C@@H](O)[C@@H](O)N[*:3])N[*:1])[*:2]; Pro(3S-OH,4S-Me) = C[C@H]1CN[C@H](C(=O)O)[C@H]1O; X1 = CCCCCOc1ccc(-c2cc(-c3ccc(C(=O)*)cc3)no2)cc1; Gln(3R-OH) = NC(=O)C[C@@H](O)[C@H](N)C(=O)O; Hyp = O=C(O)[C@@H]1C[C@@H](O)CN1

In series [1] the test system is Sap2p, Sap1p, Sap1p and Sap1p. The note with it: in micromolar concentrations; cited from earlier work.
Series [2] has as its system C. albicans null mutants. The series can be described thus: Sensitivities to calcofluor white, SDS or NaCl (spotting cells on YPD plates). Format: cell-based, Candida albicans. The following applies: for NaCl sensitivity: 1-3 M NaCl; for NaCl sensitivity / Calcofluor white (CW) sensitivity: YPD plates, 37° C.; for Calcofluor white (CW) sensitivity: 3-25 μg/ml CW. The protocol:
To investigate the effect of gene disruption on cell wall integrity and remodeling, we tested the sensitivity of all csf null mutants to calcofluor white (CW; Fluorescent Brightener 28-Sigma), SDS or NaCl by spotting cells on plates. Exponential cultures were harvested and adjusted to an OD600 of 0.24. 2.5 μl of samples plus three to four tenfold serial dilutions were deposited on the surface of YPD plates containing increasing concentrations of the compound: 3-25 μg/ml CW, 1-3 M NaCl, 0.01-0.5% SDS. […]
We further characterized the mutants by determining their susceptibility to calcofluor white, SDS and NaCl. The first column contains the name of the strains.
To go further in the analysis, we decided to test cells for their ability to respond to hyperosmotic stresses that require cell wall remodeling and integrity.

Series [3] has as its system C. albicans csf null mutants, clinical isolate and parental strain. The series can be described thus: Antifungal susceptibility assay (MIC, NCCLS M27A). Format: cell-based, Candida albicans. The note with it: all isolates, RPMI 1640, 35° C., 48 hours. Here is the method: Assays were performed at the Center for Medical Mycology, University Hospitals of Cleveland to investigate whether the csf null mutants show a higher susceptibility to antifungals when compared to wild-type. The minimum inhibitory concentrations (MIC) of three antifungal agents, amphotericin B, fluconazole and micafungin, against each fungal isolate were determined according to the NCCLS M27A standard for susceptibility testing of yeasts. […] The MIC endpoint was defined as the lowest concentration that inhibits 80% of fungal growth as compared to the growth control, for fluconazole and micafungin, and 100% inhibition for amphotericin B.
In order to investigate more extensively the effects induced by the loss of the targeted genes on the cell wall (e.g. cell wall permeability), we tested whether the mutant strains were more susceptible to antifungal drugs. Three different antifungal agents were tested at Cleaveland: one polyene (Amphotericin B; a compound that binds to ergosterols and increases membrane permeability), one azole (Fluconazole; a compound that interferes with the ergosterol biosynthesis pathway) and one echinochandin (Micafungin; a compound that inhibits the β-glucan synthetase). No differences in MIC were detected. The MIC of amphotericin B against all isolates, including the clinical isolate and parental strain, was 0.5-1 μg/ml.

The target in series [4] is hsp90 (Candida albicans, UniProt P46598). The following applies: first stage of double-blind Phase II trial, systemic candidiasis; cited from earlier work.
Sequence of hsp90 (P46598 whole entry): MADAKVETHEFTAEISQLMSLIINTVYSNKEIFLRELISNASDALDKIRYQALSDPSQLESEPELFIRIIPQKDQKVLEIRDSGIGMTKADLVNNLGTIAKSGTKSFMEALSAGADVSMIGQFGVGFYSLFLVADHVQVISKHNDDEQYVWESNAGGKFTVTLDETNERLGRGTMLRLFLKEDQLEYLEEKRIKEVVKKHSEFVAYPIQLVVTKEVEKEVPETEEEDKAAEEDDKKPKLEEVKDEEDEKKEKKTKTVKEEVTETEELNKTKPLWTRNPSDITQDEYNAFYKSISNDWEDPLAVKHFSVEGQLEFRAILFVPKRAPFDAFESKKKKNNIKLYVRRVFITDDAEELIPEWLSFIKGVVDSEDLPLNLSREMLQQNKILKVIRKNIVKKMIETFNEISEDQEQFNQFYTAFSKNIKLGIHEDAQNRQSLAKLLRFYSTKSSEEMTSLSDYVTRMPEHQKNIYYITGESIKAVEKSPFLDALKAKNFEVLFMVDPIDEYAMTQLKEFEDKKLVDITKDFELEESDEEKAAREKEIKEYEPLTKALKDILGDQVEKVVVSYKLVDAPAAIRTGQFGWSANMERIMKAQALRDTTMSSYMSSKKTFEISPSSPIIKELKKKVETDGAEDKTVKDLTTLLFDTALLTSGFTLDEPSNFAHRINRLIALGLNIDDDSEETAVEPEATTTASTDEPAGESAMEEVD
The mark [5] stands for this setting: 6.1231 null mutant vs wild type.
Setting [6] is: 6.1639 null mutant vs wild type.
Setting [7] is: 6.3873 null mutant vs wild type.
The mark [8] stands for this setting: Candida albicans, endpoint 80% inhibition of fungal growth, read-out: MIC.

Consider `CC(C)c1nc(CN(C)C(=O)N[C@H](C(=O)N[C@@H](Cc2ccccc2)C[C@H](O)[C@H](Cc2ccccc2)NC(=O)OCc2cncs2)C(C)C)cs1` [ritonavir], for which the “inhibition of the activity of Sap2p, Sap1p, Sap1p and Sap1p” value in series [1] is “inhibit the activity”.

Turning to `[Cl-].[Na+]` [NaCl], the NaCl sensitivity entry in series [2] (setting [5]), in series [2] (setting [6]), in series [2] (setting [7]), in series [2] (als1 null mutant vs wild type), in series [2] (hwp1 null mutant vs wild type) and in series [2] (mp65 null mutant vs wild type) was “+” each time. Besides, the NaCl sensitivity result in series [2] (pra1 null mutant vs wild type) and in series [2] (sap9 null mutant vs wild type) was “+” throughout. The “sensitivity to NaCl (hyperosmotic stress)” value in series [2] (all six csf mutants, increasing NaCl concentration (0-3M), 24 h at 37° C.) was “as sensitive as the parental strain”.

Turning to `OC(Cn1cncn1)(Cn1cncn1)c1ccc(F)cc1F` [fluconazole], the MIC in series [3] (setting [8]) is 0.25 µg/mL (≈ 0.816 µM).

With `C[C@@H]1[C@H](O)[C@@H](C)/C=C/C=C/C=C/C=C/C=C/C=C/C=C/[C@H](O[C@@H]2O[C@H](C)[C@@H](O)[C@H](N)[C@@H]2O)C[C@@H]2O[C@](O)(C[C@@H](O)C[C@@H](O)[C@H](O)CC[C@@H](O)C[C@@H](O)CC(=O)O[C@H]1C)C[C@H](O)[C@H]2C(=O)O` [amphotericin B], the minimal inhibitory concentration (MIC) in series [3] (including the clinical isolate and parental strain, endpoint 100% inhibition) fell in the range of 0.5 to 1 µg/mL.

For `CCCCCOc1ccc(-c2cc(-c3ccc(C(=O)N[C@H]4C[C@@H](O)[C@@H](O)NC(=O)[C@@H]5[C@@H](O)[C@@H](C)CN5C(=O)[C@H]([C@H](O)CC(N)=O)NC(=O)[C@H]([C@H](O)[C@@H](O)c5ccc(O)c(OS(=O)(=O)O)c5)NC(=O)[C@@H]5C[C@@H](O)CN5C(=O)[C@H]([C@@H](C)O)NC4=O)cc3)no2)cc1` [micafungin] (X1-[Orn(4R-OH,5R-OH)]T[Hyp][hTyr(3S-OH,4S-OH,3'-OSO3H)][Gln(3R-OH)][Pro(3S-OH,4S-Me)]; lactam 1-C), the minimum inhibitory concentration (MIC) in series [3] (setting [8]) was 0.008 µg/mL (≈ 0.0063 µM).

With `CCCCCCCCCCCCOS(=O)(=O)[O-].[Na+]` [SDS, sodium dodecyl sulfate], the “sensitivity to SDS” value in series [2] (mp65Δ, 6.1639Δ and sap9Δ, increasing concentrations of SDS (0-0.5%), 24 h at 37° C.) was “hypersensitive”.

Consider `CC(C)(C)NC(=O)[C@@H]1C[C@@H]2CCCC[C@@H]2CN1C[C@@H](O)[C@H](Cc1ccccc1)NC(=O)[C@H](CC(N)=O)NC(=O)c1ccc2ccccc2n1` [saquinavir], for which the “inhibition of the activity of Sap2p, Sap1p, Sap1p and Sap1p” value in series [1] is “inhibit the activity”.

`O=S(=O)(O)c1cc(Nc2nc(Nc3ccccc3)nc(N(CCO)CCO)n2)ccc1/C=C/c1ccc(Nc2nc(Nc3ccccc3)nc(N(CCO)CCO)n2)cc1S(=O)(=O)O` [Calcofluor white, calcofluor white]: the “Calcofluor white (CW) sensitivity” value was “+++” in series [2] (setting [5]); “+” in series [2] (setting [6]); “++” in series [2] (setting [7]); “+” in series [2] (als1 null mutant vs wild type); “+” in series [2] (hwp1 null mutant vs wild type); “+++” in series [2] (mp65 null mutant vs wild type). Further, the “Calcofluor white (CW) sensitivity” value in series [2] (pra1 null mutant vs wild type) was “++”; in series [2] (sap9 null mutant vs wild type), “+”. Moreover, the “growth in the presence of calcofluor” value in series [2] (6.1231Δ, 25 μg/ml calcofluor) was “no more cells were growing”. Moreover, in series [2] (mp65Δ), the “sensitivity to calcofluor white” value was “highly sensitive”.

B1: Mycograb: monoclonal antibodies directed against hsp90 in clinical trials for systemic candidiasis (antibody, chains of the INN, looked up, V domains shown)
VH: EVQLVESGAEVKKPGESLRISCKGSGCIISSYWISWVRQMPGKGLEWMGKIDPGDSYINYSPSFQGHVTISADKSINTAYLQWNSLKASDTAMYYCARGGRDFGDSFDYWGQGTLVTVSS
VL: DVVMTQSPSFLSAFVGDRITITCRASSGISRYLAWYQQAPGKAPKLLIYAASTLQTGVPSRFSGSGSGTEFTLTINSLQPEDFATYYCQHLNSYPLTFGGGTKVDIK
modifications: scFv
notes: monoclonal antibodies directed against hsp90 in clinical trials for systemic candidiasis
For B1, in series [4], the serious adverse events entry was “No serious adverse events”.
